Calls of active or inactive are those of the source.
Assays:
[1] = inhibitors of SNCA 5'UTR-driven reporter translation, confirmation, H4 neuroglioma cells, luminescence (AID 1988); assay type: functional, cell-based
[2] = cytotoxicity toward DRD oncogenic fibroblasts, dose response, cell-based, non-viral oncogenic, luminescence (AID 1934); assay type: functional; details: Homo sapiens
BJ [3] = assay: cytotoxicity toward BJ-TERT fibroblasts, dose response, cell-based, RAS-independent, luminescence (AID 1933); assay type: functional; details: Homo sapiens
Melanocortin receptor 4 = Melanocortin receptor 4 (Homo sapiens, UniProt P32245); assay: MC4R antagonist potency on cAMP, dose response, cell-based, TR-FRET, biased antagonists (AID 602298); assay type: functional;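 also: antagonist potency against agonist-stimulated cAMP production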
Melanocortin receptor 4, sequence (P32245 whole entry): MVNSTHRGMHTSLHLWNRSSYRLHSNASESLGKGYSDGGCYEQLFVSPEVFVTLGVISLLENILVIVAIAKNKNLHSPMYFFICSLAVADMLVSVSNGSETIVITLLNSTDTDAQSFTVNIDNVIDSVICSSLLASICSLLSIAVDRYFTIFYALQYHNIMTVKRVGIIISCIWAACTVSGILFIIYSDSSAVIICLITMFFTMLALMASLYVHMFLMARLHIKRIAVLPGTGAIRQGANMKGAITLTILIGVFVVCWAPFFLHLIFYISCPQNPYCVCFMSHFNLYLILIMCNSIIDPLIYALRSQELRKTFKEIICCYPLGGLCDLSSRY

A-375 = assay: A375 melanoma cell viability reduction, dose response, counter-screen for MITF modulator project, cherry-pick samples, set 2 (AID 540335); assay type: functional, cell-based; details: Homo sapiens
[4] = target: T1, Microphthalmia-associated transcription factor (Homo sapiens, UniProt O75030); assay: TRPM1 promoter luciferase signal decrease, dose response, MITF inhibitor project, cell-based, SK-MEL-5, cherry-picked, set 3 (AID 493073); assay type: functional
T1 sequence (O75030 whole entry): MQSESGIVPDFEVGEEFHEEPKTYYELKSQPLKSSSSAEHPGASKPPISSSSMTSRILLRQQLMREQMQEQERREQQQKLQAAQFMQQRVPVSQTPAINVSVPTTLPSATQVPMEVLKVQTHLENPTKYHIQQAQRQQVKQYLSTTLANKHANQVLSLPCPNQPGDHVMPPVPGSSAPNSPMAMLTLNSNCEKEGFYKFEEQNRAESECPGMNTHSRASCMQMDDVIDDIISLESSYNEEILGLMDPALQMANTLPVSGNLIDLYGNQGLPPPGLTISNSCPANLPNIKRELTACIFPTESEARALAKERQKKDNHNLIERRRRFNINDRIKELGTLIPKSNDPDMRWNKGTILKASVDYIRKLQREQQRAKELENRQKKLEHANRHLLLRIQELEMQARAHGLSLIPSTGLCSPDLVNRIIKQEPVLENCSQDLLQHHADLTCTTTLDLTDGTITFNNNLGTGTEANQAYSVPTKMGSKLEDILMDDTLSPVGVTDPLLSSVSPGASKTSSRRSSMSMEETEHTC

BJ [5] = assay: cells; assay type: functional, cell-based; details: Homo sapiens
BJ [6] = assay: cytotoxicity toward BJ-TERT-LT-ST fibroblasts, dose response, cell-based, RAS-independent, luminescence (AID 1935); assay type: functional; details: Homo sapiens;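 also: BJ fibroblasts immortalized with TERT plus LT and ST oncogenes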
[7] = inhibitors of firefly luciferase expression or activity, dose response, H4 neuroglioma cells, luminescence (AID 1990); assay type: functional, cell-based
[8] = Luminescence Cell-Based Dose Retest to Confirm Inhibitors of Cancer Stem Cells. [Related pubchem assays (depositor defined):AID2717, AID2721]; assay type: functional; details: Homo sapiens
[9] = nonselective inhibitors of cellular cAMP signaling, dose response, counter-screen for MC4R biased antagonist project, cell-based, TR-FRET cAMP detection (AID 602305); assay type: functional;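 also: U2OS cells stimulated with forskolin near its EC80 as the cAMP inducer; potency is for inhibition of forskolin-stimulated cAMP signaling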
[10] = Luminescence Cell-Based Dose Response HTS to Identify Inhibitors of 5'UTR Stem-Loop Driven Prion Protein mRNA Translation in H4 Neuroglioblastoma Cells. [Related pubchem assays: 1827 (Project Summary), 1813 (Primary HTS)]; assay type: functional
Phospholipase D1 = Phospholipase D1 (Homo sapiens, UniProt Q13393); assay: PLD1 inhibitor potency in cells, dose response (AID 602151); assay type: functional;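 also: cellular PLD1 assay in Calu-1 cells stimulated with PMA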
[11] = target: Short transient receptor potential channel 6 (Mus musculus, UniProt Q61143); assay: TRPC6 inhibition potency of TRPC4 inhibitor analogs, dose response, selectivity assay for selective TRPC4 inhibitor project, HEK293 cells, membrane potential dye, IC50 (AID 492987); assay type: functional, cell-based
Short transient receptor potential channel 6, sequence (Q61143 whole entry): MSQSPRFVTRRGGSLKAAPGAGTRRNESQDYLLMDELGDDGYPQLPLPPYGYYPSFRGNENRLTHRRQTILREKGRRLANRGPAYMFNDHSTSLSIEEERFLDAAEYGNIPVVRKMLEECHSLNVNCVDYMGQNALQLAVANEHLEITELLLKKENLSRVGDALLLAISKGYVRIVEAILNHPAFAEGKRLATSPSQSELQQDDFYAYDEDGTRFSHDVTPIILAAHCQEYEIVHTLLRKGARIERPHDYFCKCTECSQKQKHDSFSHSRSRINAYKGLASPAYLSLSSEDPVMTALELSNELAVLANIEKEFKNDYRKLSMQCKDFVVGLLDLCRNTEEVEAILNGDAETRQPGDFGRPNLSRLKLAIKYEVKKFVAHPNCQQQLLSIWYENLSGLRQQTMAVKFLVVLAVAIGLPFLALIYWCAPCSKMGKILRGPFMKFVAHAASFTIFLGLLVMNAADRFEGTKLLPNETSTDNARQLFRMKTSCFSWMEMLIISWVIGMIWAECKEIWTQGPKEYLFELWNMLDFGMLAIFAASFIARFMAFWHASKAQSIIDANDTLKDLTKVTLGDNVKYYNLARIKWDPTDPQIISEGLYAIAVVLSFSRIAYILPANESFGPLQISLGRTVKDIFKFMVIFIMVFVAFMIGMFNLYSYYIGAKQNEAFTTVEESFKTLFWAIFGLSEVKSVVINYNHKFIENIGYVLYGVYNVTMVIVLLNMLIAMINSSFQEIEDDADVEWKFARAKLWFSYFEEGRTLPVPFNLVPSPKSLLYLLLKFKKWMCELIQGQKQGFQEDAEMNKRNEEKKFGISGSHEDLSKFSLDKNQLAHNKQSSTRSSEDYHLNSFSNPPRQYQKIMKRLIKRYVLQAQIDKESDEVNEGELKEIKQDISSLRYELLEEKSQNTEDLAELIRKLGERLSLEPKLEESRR

[12] = target: T2, Short transient receptor potential channel 4 (Mus musculus, UniProt Q9QUQ5); assay: SAR Analysis for the identification of selective inhibits of the transient receptor potential cation channel C4 (TRPC4): Automated Electrophysiology. [Related pubchem assays (depositor defined):AID2256]; assay type: functional
T2 sequence (Q9QUQ5 whole entry): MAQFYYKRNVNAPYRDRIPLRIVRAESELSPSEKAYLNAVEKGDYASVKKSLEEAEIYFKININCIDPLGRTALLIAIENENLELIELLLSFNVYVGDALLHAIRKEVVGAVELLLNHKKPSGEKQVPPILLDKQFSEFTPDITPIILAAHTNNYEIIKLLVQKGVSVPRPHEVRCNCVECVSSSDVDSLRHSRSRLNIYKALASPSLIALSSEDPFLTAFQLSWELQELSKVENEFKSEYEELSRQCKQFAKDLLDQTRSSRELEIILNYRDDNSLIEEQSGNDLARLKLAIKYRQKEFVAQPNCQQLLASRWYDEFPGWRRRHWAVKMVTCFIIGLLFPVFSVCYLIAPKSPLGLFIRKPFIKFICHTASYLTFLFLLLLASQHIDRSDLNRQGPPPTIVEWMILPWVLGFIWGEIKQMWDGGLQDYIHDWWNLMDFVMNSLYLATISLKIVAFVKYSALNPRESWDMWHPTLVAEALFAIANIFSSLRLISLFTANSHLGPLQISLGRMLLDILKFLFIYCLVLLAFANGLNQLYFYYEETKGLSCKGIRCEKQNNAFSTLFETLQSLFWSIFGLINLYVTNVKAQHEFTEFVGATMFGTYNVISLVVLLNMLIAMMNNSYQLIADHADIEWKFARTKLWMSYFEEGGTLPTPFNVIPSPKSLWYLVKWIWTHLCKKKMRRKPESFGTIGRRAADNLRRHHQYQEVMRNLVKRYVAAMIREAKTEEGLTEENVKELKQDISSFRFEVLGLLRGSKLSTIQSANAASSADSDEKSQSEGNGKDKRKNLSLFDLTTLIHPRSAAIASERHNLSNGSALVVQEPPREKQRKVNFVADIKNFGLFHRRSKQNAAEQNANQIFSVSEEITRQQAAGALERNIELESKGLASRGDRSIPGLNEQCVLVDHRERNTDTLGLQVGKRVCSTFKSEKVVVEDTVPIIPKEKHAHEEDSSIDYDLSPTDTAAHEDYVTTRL

[13] = target: T2, Short transient receptor potential channel 4; assay: TRPC4 inhibitor concentration-response, dose response, cell-based, HEK293 TRPC4/mu-opioid, DAMGO stimulus, Fluo-4 (AID 492994); assay type: functional
HEK293 [14] = assay: SAR Analysis of small molecule inhibitors of B-cell specific antigen receptor-induced NF-kB activation in a HEK-293T cell line using a luminescence assay - Set 2. [Related pubchem assays (depositor defined):AID435022, AID435025, AID489021]; assay type: functional, cell-based; details: Homo sapiens
HEK293 [15] = assay: cytotoxicity in HEK293T NF-kB-Luc cells, SAR follow-up, cytotoxicity control for NF-kB activator project, cell-based, resazurin fluorescence (AID 493251); assay type: functional; details: Homo sapiens
Jurkat = assay: SAR Analysis of small molecule inhibitors of […] specific antigen receptor-induced NF-kB activation in a Jurkat cell line using a luminescence assay - Set 3. [Related pubchem assays (depositor defined):AID435022, AID435025, AID465]; assay type: functional, cell-based; details: Homo sapiens
ORF 73 = ORF 73 (Human herpesvirus 8, UniProt O40947); assay: inhibitors of C-LANA binding to LBS DNA, dose response, biochemical, fluorescence polarization, cherry-picked samples (AID 504725); parameters: species or system Human gammaherpesvirus 8;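 also: fluorescence polarization of a labeled DNA duplex reporting LANA DNA binding; potency is for inhibitors that block LANA binding to the DNA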
ORF 73, sequence (O40947 whole entry): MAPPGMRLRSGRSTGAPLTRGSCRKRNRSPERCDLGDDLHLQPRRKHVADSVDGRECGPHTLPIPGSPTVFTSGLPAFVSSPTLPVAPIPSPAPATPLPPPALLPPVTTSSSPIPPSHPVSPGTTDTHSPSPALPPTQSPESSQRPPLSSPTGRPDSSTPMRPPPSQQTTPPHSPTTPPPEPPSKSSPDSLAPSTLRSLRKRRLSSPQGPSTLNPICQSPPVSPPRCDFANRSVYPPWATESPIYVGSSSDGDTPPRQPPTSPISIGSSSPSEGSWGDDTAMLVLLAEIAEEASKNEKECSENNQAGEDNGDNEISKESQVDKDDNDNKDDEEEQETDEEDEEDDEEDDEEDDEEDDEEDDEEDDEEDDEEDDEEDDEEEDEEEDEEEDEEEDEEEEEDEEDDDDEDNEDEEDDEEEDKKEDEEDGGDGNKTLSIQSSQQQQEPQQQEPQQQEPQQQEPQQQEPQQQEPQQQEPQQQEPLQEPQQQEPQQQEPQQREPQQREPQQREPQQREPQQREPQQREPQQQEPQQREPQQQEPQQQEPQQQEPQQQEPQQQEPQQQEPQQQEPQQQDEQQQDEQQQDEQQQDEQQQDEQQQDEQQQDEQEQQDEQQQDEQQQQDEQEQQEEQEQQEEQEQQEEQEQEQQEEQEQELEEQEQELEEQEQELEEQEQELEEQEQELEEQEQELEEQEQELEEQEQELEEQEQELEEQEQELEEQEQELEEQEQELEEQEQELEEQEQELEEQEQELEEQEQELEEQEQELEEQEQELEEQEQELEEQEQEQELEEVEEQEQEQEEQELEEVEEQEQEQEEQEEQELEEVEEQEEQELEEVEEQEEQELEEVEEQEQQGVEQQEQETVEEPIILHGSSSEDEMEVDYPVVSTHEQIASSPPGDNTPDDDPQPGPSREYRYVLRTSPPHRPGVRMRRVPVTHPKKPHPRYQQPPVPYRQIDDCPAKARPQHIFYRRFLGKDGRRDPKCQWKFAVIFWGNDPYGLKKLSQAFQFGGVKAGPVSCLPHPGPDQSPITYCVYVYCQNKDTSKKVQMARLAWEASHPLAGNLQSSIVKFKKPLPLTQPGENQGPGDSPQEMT

[16] = target: T3, Endoribonuclease toxin MazF (Escherichia coli K-12, UniProt P0AE70); assay: fluorescent RNA oligo signal without MazF, dose response, counter-screen for MazEF activator project, biochemical, fluorescence, single-stranded RNase substrate (AID 588502); assay type: functional
T3 sequence (P0AE70 whole entry): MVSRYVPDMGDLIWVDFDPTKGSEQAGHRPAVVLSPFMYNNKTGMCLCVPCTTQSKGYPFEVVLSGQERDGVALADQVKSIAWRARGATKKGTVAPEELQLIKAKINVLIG

[17] = target: UDP-galactopyranose mutase (Mycobacterium tuberculosis, UniProt P9WIQ1); assay: Inhibitors of Mycobacterium tuberculosis UDP-galactopyranose mutase (UGM) enzyme Measured in Biochemical System Using Plate Reader - 2105-02_Inhibitor_Dose_CherryPick_Activity. [Related pubchem assays (depositor defined):AID504439]
UDP-galactopyranose mutase, sequence (P9WIQ1 whole entry): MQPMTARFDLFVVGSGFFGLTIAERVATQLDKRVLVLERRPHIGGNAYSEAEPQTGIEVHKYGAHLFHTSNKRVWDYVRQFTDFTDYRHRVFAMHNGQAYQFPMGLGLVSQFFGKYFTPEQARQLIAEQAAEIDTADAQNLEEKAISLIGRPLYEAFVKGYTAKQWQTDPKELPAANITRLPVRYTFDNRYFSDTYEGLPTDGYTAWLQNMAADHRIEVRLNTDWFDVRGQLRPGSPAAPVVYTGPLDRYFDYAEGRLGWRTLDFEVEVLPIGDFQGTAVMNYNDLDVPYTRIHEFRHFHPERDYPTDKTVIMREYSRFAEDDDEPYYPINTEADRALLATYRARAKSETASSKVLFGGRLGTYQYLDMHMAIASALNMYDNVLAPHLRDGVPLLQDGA

[18] = Luminescence-based cell-based high throughput dose response assay to identify activators of the DAF-12 from the parasite S. stercoralis (ssDAF-12).; assay type: functional
[19] = target: T3, Endoribonuclease toxin MazF; assay: MazF toxin RNase activators, dose response, biochemical, fluorescence, single-stranded RNA substrate, uHTS hits (AID 588481); assay type: functional
Keap1/Nrf2 = Keap1/Nrf2 (Homo sapiens, UniProt Q14145); assay: Keap1-Nrf2 protein-protein interaction inhibitors, dose response, biochemical, fluorescence polarization, cherry-picked samples (AID 588683)
Keap1/Nrf2, sequence (Q16236 whole entry, the tested form may be a part): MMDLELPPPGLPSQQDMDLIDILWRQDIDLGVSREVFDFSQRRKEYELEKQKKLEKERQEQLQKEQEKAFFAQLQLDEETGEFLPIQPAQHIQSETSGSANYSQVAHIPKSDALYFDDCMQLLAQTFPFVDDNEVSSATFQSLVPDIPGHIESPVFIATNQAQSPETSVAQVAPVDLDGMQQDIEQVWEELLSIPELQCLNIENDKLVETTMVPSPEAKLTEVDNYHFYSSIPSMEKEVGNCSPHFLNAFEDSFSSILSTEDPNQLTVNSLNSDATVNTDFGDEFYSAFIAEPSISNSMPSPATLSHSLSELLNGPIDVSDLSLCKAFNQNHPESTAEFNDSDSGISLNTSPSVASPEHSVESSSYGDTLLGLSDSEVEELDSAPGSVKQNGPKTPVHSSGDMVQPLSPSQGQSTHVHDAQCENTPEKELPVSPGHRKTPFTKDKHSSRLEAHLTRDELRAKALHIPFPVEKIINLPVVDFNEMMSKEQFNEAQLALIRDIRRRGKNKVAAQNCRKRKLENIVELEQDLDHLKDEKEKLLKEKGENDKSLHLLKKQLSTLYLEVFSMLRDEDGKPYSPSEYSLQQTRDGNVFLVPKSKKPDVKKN
Keap1/Nrf2, sequence (Q14145 whole entry, the tested form may be a part): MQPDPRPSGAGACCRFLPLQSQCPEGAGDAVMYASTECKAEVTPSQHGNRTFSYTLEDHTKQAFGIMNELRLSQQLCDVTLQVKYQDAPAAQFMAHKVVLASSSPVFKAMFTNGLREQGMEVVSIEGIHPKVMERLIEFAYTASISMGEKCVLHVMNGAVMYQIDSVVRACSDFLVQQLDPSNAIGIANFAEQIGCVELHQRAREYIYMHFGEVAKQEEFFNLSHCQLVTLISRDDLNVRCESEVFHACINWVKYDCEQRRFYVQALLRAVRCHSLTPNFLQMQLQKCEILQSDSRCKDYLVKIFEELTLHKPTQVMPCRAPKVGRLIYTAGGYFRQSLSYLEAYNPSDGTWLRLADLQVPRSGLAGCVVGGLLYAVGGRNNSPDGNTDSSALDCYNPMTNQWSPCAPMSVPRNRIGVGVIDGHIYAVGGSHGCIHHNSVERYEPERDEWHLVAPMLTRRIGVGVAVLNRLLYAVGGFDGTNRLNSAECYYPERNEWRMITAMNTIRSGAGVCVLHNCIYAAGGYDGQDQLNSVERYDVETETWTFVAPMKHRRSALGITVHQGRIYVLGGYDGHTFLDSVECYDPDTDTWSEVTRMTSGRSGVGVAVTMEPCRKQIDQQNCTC

[20] = target: T4, Oxysterols receptor LXR-beta (Homo sapiens, UniProt P55055); assay: LXR agonists, Gal4 luciferase reporter, dose response, counter-screen for ssDAF-12 agonist project, cell-based, luminescence, HEK293, S. stercoralis campaign (AID 720737); assay type: functional; details: read-out: IC50 (the source's name)
T4 sequence (P55055 whole entry): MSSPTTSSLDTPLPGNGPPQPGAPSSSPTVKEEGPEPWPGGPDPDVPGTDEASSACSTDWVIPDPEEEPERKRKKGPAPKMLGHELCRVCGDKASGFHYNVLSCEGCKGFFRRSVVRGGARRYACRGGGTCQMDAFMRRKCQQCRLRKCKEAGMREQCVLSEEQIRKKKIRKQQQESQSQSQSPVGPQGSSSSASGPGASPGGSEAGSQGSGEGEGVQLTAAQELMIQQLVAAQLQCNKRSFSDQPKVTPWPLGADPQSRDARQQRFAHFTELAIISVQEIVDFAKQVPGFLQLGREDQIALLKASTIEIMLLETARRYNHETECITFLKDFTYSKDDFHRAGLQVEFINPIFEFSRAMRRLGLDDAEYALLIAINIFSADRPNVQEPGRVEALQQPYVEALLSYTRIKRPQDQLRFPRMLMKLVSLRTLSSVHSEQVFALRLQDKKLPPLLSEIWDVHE

Troponin, cardiac muscle = Troponin, cardiac muscle (Homo sapiens, UniProt P19429+P45379+P63316); assay: Fluorescence-based biochemical high throughput dose response assay for activators of the calcium sensitivity of cardiac Regulated Thin Filaments (RTF). [Related pubchem assays (depositor defined):AID493008, AID493018, AID504382, AID504383]; assay type: protein-complex assay
[21] = target: Dual specificity protein kinase CLK1 (Homo sapiens, UniProt P49759); assay: CLK1 kinase inhibitors, off-target check, dose response, selectivity assay for Dyrk1A inhibitor project, biochemical, cherry-picked samples (AID 588811)
Dual specificity protein kinase CLK1, sequence (P49759 whole entry): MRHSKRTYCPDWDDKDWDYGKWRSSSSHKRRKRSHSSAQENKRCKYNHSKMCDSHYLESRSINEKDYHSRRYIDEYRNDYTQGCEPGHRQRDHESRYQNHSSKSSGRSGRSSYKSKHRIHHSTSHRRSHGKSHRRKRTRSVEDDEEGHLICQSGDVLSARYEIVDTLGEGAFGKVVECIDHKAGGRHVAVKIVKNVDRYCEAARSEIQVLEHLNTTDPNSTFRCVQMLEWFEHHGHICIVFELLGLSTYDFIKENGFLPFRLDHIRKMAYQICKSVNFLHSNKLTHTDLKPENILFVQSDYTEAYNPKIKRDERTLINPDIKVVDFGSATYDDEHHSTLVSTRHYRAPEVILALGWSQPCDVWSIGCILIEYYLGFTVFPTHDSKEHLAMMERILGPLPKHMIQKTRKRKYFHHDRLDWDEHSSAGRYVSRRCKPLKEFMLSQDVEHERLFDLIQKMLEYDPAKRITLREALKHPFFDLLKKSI

O=C(/C=C/c1ccc(Cl)cc1)c1ccc([N+](=O)[O-])o1
EC50 [1]: > 120 µM (not active)
EC50 [2]: 1.13 µM (inconclusive)
EC50 (BJ [3]): > 150 µM (not active)
IC50 (Melanocortin receptor 4): > 64.6 µM (inactive)
AC50 (A-375): 29.9 µM (active)
AC50 [4]: 5.32 µM (active)
EC50 (BJ [5]): > 150 µM (inconclusive)
EC50 (BJ [6]): > 150 µM (inconclusive)
EC50 [7]: 8.88 µM (active)
AC50 [8]: 1.21 µM (active)
IC50 [9]: > 64.6 µM (inactive)
EC50 [10]: > 60 µM (not active)

O=C(NCCN1CC=C(n2c(=O)[nH]c3ccccc32)CC1)C1CC1c1ccccc1 (stereo not drawn)
IC50 (Phospholipase D1): 0.2 µM (active)

Cc1ccc2nc(N3CCCC3)cc(C)c2c1
IC50 [11]: 2.03 µM (active)
IC50 [12]: 3.71 µM (active)
IC50 [13]: 2.04 µM (active)

CC(C)NC(=O)CCc1nc(-c2ccc(C(C)(C)C)cc2)no1
IC50 (HEK293 [14]): 13.5 µM (active)
IC50 (HEK293 [15]): > 80 µM (inactive)
IC50 (Jurkat): 29.2 µM (inactive)

CN(N=Nc1ccc([N+](=O)[O-])cc1)c1ccccc1
AC50 (ORF 73): 11.4 µM (active)
EC50 [16]: 31 µM (inactive)
AC50 [17]: 28.7 µM (active)
IC50 [18]: > 67.6 µM (inactive)
EC50 [19]: > 99 µM (inactive)
AC50 (Keap1/Nrf2): 21.8 µM (active)
EC50 [20]: > 67.6 µM (inactive)
EC50 (Troponin, cardiac muscle): 5.61 µM (active)

Cc1nc(CN(C)c2ncnc3ccc(-c4ccc5c(c4)OCO5)cc23)cs1
AC50 [21]: < 0.00195 µM (active)

— ChEMBL document CHEMBL1201862, “PubChem BioAssay data set” (2004)
